In BindingDB's records for doi:10.1021/jm030493t (Johnson & Johnson Pharmaceutical Research & Development, 2004) one finds IC50 data, which are given here for two compounds.

A short description of the assay: Compound was tested for inhibition of gel-filtered platelet (GFP) aggregation induced by alpha-thrombin.

Regarding `CN[C@H](Cc1ccccc1)C(=O)N1CCC[C@H]1C(=O)N[C@@H](CCCN=C(N)N)C(=O)c1nc2ccccc2s1` [RWJ-50353], inhibition was half-maximal at 0.032 µM (IC50).
Next, `CN[C@H](Cc1ccccc1)C(=O)N1CCCC1C(=O)N[C@H](C=O)CCCNC(=N)N` (stereo partly drawn) [(S)-1-((R)-2-Methylamino-3-phenyl-propionyl)-pyrrolidine-2-carboxylic acid ((S)-1-formyl-4-guanidino-butyl)-amide]: 0.083 µM.

One may read the IC50 as the midpoint of a concentration-inhibition curve.
